Measurements published in patent US9067974B2, “Polymyxin derivatives and uses thereof” (priority 2006, dated 2015).

Assays:
E. coli IH3080 (K1:O18) = assay: Well diffusion growth inhibition on LB agar plates (direct antibacterial activity); format: cell-based, Escherichia coli
Method: Peptides synthesized in Example 1, all carrying at least two (2) but not more than three (3) positive charges, were studied for their ability to inhibit the growth of E. coli. This was tested employing LB agar (LB Agar Lennox, Difco, BD, Sparks, Md., U.S.A) plates. The indicator organism E. coli IH3080 (K1:O18) was an encapsulated strain originally isolated from a neonate suffering from meningitis (Vaara et al. 1984) and obtained from National Public Health Institute, Helsinki, Finland.
(§1) From an overnight-grown culture of IH3080 on LB agar, a suspension of approx. 10^8 cells/ml was prepared in 0.9% NaCl. Aliquots of this suspension were then pipetted on the agar plates and the plates were gently shaken to spread the suspension evenly on the entire surface of the plate. Thereafter, the unabsorbed part of the suspension was removed by using a Pasteur pipette. After the surface had dried, small wells (diameter, 2 mm) were drilled on the plates (five wells per plate) by using a sterile sharp-edged narrow metal tube, single-use pipette tip, and vacuum suction. […] Controls included 0.9% NaCl solution without the compound to be tested. The plates were then incubated for 18 h at 37° C. whereafter the diameters of growth inhibition zones around each well were measured; the diameter of the well itself was not reduced. Finally, the diameters were converted to surface areas of growth inhibition (in square mm).

E. coli IH3080 = assay: Sensitization to rifampin: well diffusion growth inhibition on LB plates containing rifampin; format: cell-based, Escherichia coli
Method: as §1

[1] = 4 μg of compound, rifampin 0 μg/ml
[2] = 4 μg of compound, rifampin 0.1 μg/ml
[3] = 4 μg of compound, rifampin 1.0 μg/ml

| Compound | Antibacterial activity (growth inhibition area around a well) (E. coli IH3080 (K1:O18); 4 μg of compound per well) [square millimeters] | Antibacterial activity (growth inhibition area around a well) (E. coli IH3080 (K1:O18); 10 μg of compound per well) [square millimeters] | Antibacterial activity in the presence of rifampin (growth inhibition area around a well) (E. coli IH3080; [1]) [square millimeters] | Antibacterial activity in the presence of rifampin (growth inhibition area around a well) (E. coli IH3080; [2]) [square millimeters] | Antibacterial activity in the presence of rifampin (growth inhibition area around a well) (E. coli IH3080; [3]) [square millimeters] | Antibacterial activity in the presence of rifampin (growth inhibition area around a well) (E. coli IH3080; 10 μg of compound, rifampin 1.0 μg/ml) [square millimeters] | Concentration of rifampin needed for the inhibitory effect in the absence of the compounds tested (E. coli IH3080; LB plates) [µg/mL] |
| --- | --- | --- | --- | --- | --- | --- | --- |
| Deacylcolistin [reference compound] | 79 | 95 | 79 | 87 | 127 | – | – |
| OA-Abu-cy[Dab-Dab-DPhe-Leu-Dab-Dab-Thr-] [NAB 713] | 0 | 0 | 0 | 20 | 38 | – | – |
| OA-Thr-Abu-cy[Dab-Abu-DPhe-Leu-Dab-Dab-Thr-] [NAB 710] | 0 | 7 | 0 | 7 | 13 | – | – |
| MHA-Thr-Abu-cy[Dab-Dab-DPhe-Leu-Dab-Dab-Thr-] [NAB 706] | 5 | 7 | 5 | 79 | 133 | – | – |
| OA-Thr-Abu-cy[Dab-Lys-DPhe-Leu-Dab-Dab-Thr-] [NAB 731] | 0 | 0 | 0 | 0 | 5 | 22 | – |
| OA-DAla-DAla-cy[Dab-Dab-DPhe-Leu-Dab-Dab-Thr-] [NAB 733] | 0 | 0 | 0 | 95 | 113 | – | – |
| MHA-Dab-Thr-Dab-cy[Dab-Dab-DPhe-Leu-Abu-Abu-Thr-] [NAB 721] | 0 | 0 | 0 | 13 | 28 | – | – |
| CO[C@H]1/C=C/O[C@@]2(C)Oc3c(C)c(O)c4c(O)c(c(/C=N/N5CCN(C)CC5)c(O)c4c3C2=O)NC(=O)/C(C)=C\C=C\[C@H](C)[C@H](O)[C@@H](C)[C@@H](O)[C@@H](C)[C@H](OC(C)=O)[C@@H]1C [rifampin, reference compound] | – | – | – | – | – | – | 10 |
| Polymyxin B heptapeptide [reference compound] | 0 | 0 | 0 | 0 | 38 | – | – |
